Data published in US20240325548A1, “DYNAMIC BIOACTIVE SCAFFOLDS AND THERAPEUTIC USES THEREOF AFTER CNS INJURY” (Northwestern University, priority 2021, published 2024).

What was measured:
[1] = tested on: human umbilical vein vascular endothelial cells (HUVECs); assay: HUVEC branching / capillary network formation; type: cell-based; details: within 48 h of culture
Method: (§1) Human umbilical vein cord (HUVECs) (pooled donor, LONZA, Allendale, New Jersey) were grown to 70-80% confluence for each experiment (P2-P4) in a T-75 cell culture flask using complete media (Endo GRO-VEGF Complete Culture Media Kit, Millipore) supplemented with 1% penicillin-streptomycin. Media was changed every 3 days.
Treatments were prepared by dissolving the co-assembled PAs in media without serum. The total concentration of FGF2 PAs per treatment was 0.5 μM. FGF-2 native protein (Peprotech) was resuspended and used at 0.25 nM. For western blot experiments, HUVEC were cultured in 12 well plates at a density of approximately 150,000 cells/well for 2 days in vitro before being treated. Treatments were added for 2 h-2 days in vitro before cell lysates were harvested or cells were fixed. […]
To assess in vitro tubulogenesis and in vivo angiogenesis, an ImageJ (Fiji) script was established to automatically calculate 1) area fraction of blood vessels, 2) blood vessels length, and 3) number of branches. Images were processed, binarized and analyzed. Newly generated blood vessels in vivo were identified by quantifying the amount of CD31/BrdU double-positive cells within the region of interest. […] The quantified cross sections were chosen as the first serial cross sections within the lesion that had DiI staining.

FGFR1 = target: T1, FGFR1 (Homo sapiens, UniProt P11362); assay: FGF-2 intracellular signaling pathway in HUVECs (WB p-FGFR1, p-ERK1/2); type: cell-based
T1 construct: host or cells: HUVECs (pooled donor)
Method: as §1
Treatments were prepared by dissolving the co-assembled PAs in media without serum. The total concentration of FGF2 PAs per treatment was 0.5 μM. FGF-2 native protein (Peprotech) was resuspended and used at 0.25 nM. For western blot experiments, HUVEC were cultured in 12 well plates at a density of approximately 150,000 cells/well for 2 days in vitro before being treated. Treatments were added for 2 h-2 days in vitro before cell lysates were harvested or cells were fixed. For PA coatings, PAs were painted on the coverslips (German Glass, Chemglass Life Science) or tissue culture plates as described in the Co-assembled PA preparation section. Three replicates per condition and three independent experiments were carried out for all conditions investigated.
(§2) RIPA buffer (Thermofisher) with a cocktail of Halt Protease and Phosphatase Inhibitors (Thermofisher) was used to extract protein from in vitro and in vivo samples. For in vivo studies, spinal cord tissue was then sonicated using a horn sonicator (Branson) to break up the tissue. […]

hNPCs = assay: hNPC attachment, proliferation and phenotype on co-assembled PA coatings (EdU, SOX-2, PAX6); type: cell-based, human
Description: Neural progenitor cells (NPCs) were differentiated from human embryonic stem cells HUES 64 (Harvard University) (see FIG. 2C). In short, 70% confluent stem cell cultures grown in Matrigel (Thermo Fisher) coated plates with mTESR medium (STEMCELL Technologies), were switched to N2B27 medium (50% DMEM: F12, 50% Neurobasal, supplemented with NEAA, Glutamax, N2 and B27; Gibco) containing dual SMAD inhibitors (SB431542, DNSK International and LDN-193189, Tocris) for 12 days to induce the generation of neural progenitors. Neuralization was enhanced by supplementing medium with laminin from day 5 to 12. Next, neural rosettes were dissociated with neural rosette selection reagent (STEMCELL Technologies) to obtain NPCs, which are expanded in N2B27 (Gibco) medium supplemented with bFGF (Millipore). For experimentation in the different PA platforms, NPCs were dissociated with Accutase (Innovative Cell technology), and cultured in the distinct platforms with DMEM: F12+N2+B27 medium with hyclone penicillin-streptomycin (GE Healthcare) and ascorbic acid (0.2 μg/mL; Sigma-Aldrich).
(§3) For IKVAV PA treatments, hNPCs were cultured on ornithine coatings (German Glass, Chemglass Life Science) in 6 well and 24 well plates at a density of 500,000 cells/well and 80,000 cells/well respectively. hNPCs were treated with […] of IKVAV PAs ([PA]=6 mM, [KCl]=3 mM, [NaCl]=150 mM) or recombinant laminin protein (10 mg/mL) in solution. IKVAV PA2 and IKVAV PA5 were also mixed with 5 mM CaCl2) at a ratio PA:CaCl2) 6:1 to treat hNPCs. For 2D experiments, hNPCs were cultured on the different IKVAV PAs or laminin coatings in 6 well and 24 well plates at densities mentioned above. For co-assembled experiments, hNPCs were cultured on the different co-assembled PA coatings in 6 well and 24 well plates at a density of 400,000 cells/well and 50,000 cells/well respectively.
(§4) hNPCs were fed 4 times a week with DMEM: F12+N2^+B27 medium with hyclone penicillin-streptomycin and ascorbic acid. After 24 h, 72 h 1- or 2-weeks in vitro, cell lysates were harvested or fixed for WB or ICC, respectively. Three replicates per condition and at least three independent experiments were carried out for all conditions investigated.
For the hNPCs proliferation assay, 2 μM of the thymidine analog 5-ethynyl-2′-deoxyuridine (EdU, Thermo Fisher) was incorporated into the culture medium for 24 h. Cells were fixed at the indicated time points in 4% paraformaldehyde (PFA) for 15 min at RT. After fixation, samples were washed in PBS twice and then stained with Click-iT™ EdU Cell Proliferation Kit containing 11 mM CuSO4 (from 50 mM stock) and 1 μg/mL of Alexa Fluor-555 azide (from 0.5 mg/mL, Thermo Fisher) for 30 minutes at RT in the dark. The staining cocktail was then removed, and cells were washed with PBS. Then, hNPCs were counterstained with anti-rabbit SOX-2 antibody following the immunofluorescence protocol described below and 4′, 6-diamidino-2-phenylindole (DAPI, Thermo Fisher) at 5 μg/mL in PBS for 20 min at RT. The cells were then washed with PBS and mounted with Immu-Mount (Fisher Scientific) for imaging.
For immunofluorescence, fixed primary cultures or free-floating tissue sections (40 m Thick) were incubated in blocking buffer containing 0.02% Triton-X (Sigma-Aldrich), 1% NHS (Gibco) and PBS 1× (Gibco). Samples were incubated with primary antibodies over night at 4° C. Alexa-488, Alexa-555 and/or Alexa-647 (1:500, Thermofisher) were used as secondary antibodies. DAPI (1:500, Thermofisher) was used to stain nuclei. […]

FGFR1 and ITGB1 = target: T2, FGFR1 and ITGB1 (Homo sapiens, UniProt P11362); assay: p-FGFR1 and active ITGB1 in hNPCs on co-assembled PA coatings (WB); type: cell-based
T2 construct: endogenous in cells; host or cells: hNPCs differentiated from human embryonic stem cells HUES 64, seeded on co-assembled PA coatings
Method: as §3, §4, §2

T1 sequence (P11362 22-822): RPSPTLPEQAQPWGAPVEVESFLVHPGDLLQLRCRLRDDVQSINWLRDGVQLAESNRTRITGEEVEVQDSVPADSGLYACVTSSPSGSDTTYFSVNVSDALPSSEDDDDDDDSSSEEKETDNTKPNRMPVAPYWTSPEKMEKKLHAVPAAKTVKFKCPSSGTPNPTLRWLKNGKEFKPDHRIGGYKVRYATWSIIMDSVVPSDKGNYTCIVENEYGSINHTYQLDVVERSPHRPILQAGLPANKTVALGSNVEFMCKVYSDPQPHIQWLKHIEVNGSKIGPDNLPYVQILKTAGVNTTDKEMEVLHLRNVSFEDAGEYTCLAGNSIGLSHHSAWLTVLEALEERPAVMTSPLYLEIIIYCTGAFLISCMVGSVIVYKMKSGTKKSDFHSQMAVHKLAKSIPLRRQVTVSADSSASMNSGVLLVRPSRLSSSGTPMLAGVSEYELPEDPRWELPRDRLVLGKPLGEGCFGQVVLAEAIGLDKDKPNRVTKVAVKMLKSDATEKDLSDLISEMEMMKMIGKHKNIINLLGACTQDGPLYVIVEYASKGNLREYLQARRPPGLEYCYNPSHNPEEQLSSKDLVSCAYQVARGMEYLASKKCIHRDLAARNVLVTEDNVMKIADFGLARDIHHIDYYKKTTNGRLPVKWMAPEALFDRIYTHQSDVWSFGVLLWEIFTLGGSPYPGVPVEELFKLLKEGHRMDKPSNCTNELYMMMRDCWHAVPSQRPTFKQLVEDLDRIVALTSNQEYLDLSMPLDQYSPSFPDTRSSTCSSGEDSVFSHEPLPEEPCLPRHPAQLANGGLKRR
T2 sequence (P11362 22-822): as above

levels of p-FGFR1 and downstream p-ERK1/2 (FGFR1): high levels
P-FGFR-1 expression (FGFR1 and ITGB1): highly expressed
Substance: native FGF-2: FGF-2 native protein (Peprotech), positive control
branching and vessel-like capillary network formation [1]: extensive branching and formation of vessel-like capillary networks
percentage of proliferating EdU+ and SOX2+ cells (hNPCs): increased
